# Test results: EP1550446A1, “Use of 1-(5-isoquinolinesulfonyl) homopiperazine for treating and preventing hypopigmentary disorders” (priority 2003, dated 2005)
# Legend:
# [1] = test system: human melanoma cell line (Mel-Ho); assay: Melanocyte dendrite outgrowth assay; format: cell-based; details: Mel-Ho cells; for dendrite formation (dendricity): 100 µM, treated for 24 hours, digital photography (Figure 1)
# From the text: A possibility to test the effect of a compound on melanocyte function as a measure for pigmentation, the melanocyte dendrite outgrowth assay can be performed. Vitiligo melanocytes for example have only stubby dendrites. Increasing dendricity as a prerequisite for the transfer of the melanosomes from melanocytes to the surrounding keratinocytes rescues this defect. For this assay, cells from a human melanoma cell line (Mel-Ho) were obtained from DSMZ (Deutsche Sammlung für Mikroorganismen und Zellkulturen) and were cultured according to the protocol provided by DSMZ. In short, after thawing the melanocytes were cultured in T-75 flasks in melanocyte culture media (provided by the manufacturer) until they reach 70-80% confluency. The melanocytes were then trypsinized, transferred into 5-10 new T-75 flasks, and grown again to same confluency as described above. After this expansion step the melanocytes were immediately used for the Melanocyte Dendrite Outgrowth Assay or were frozen for later use. […] Forskolin is known to cause increased melanocyte dendricity and was used as a positive control. […] Melanocyte dendrite outgrowth was documented by digital photography (Canon G2 Powershot) after 3, 6 and 24 hours.
# [2] = test system: normal human epidermal keratinocytes (neonatal keratinocytes, NHEK)
# Description: To test a possible cytotoxic effect resulting in a morphological change of keratinocytes, normal human epidermal keratinocytes were obtained from Clonetics (neonatal keratinocytes, NHEK) and were cultured according to the manufacturers' protocol. In short, after thawing, the keratinocytes were cultured in T-75 flasks in keratinocyte culture media (provided by the manufacturer) until they reached 70-80% confluency. The keratinocytes were then trypsinized, transferred into new T-75 flasks at a density of 3500 cells/cm^2. After this expansion step the keratinocytes were immediately used for the cytotoxic assay procedure or were frozen for later use. […] Cells treated with media only were used as a negative control. Photos were taken at 3, 6 and 24 hours after stimulation for documentary reasons.
Compound,morphological changes as a measure for cytotoxicity (HaCaT keratinocytes),dendrite formation (dendricity) [1],dendrite formation ([1]; concentrations lower than 100 µM),morphological changes as a measure for cytotoxicity [2]
Cl.Cl.O=S(=O)(c1cccc2cnccc12)N1CCCNCC1 [1-(5-isoquinolinesulfonyl)homopiperazine dihydrochloride],No morphological changes,dendricity was strongly stimulated,sufficient to induce dendrite formation,No morphological changes
O=S(=O)(c1cccc2cnccc12)N1CCCNCC1 [1-(5-isoquinolinesulfonyl)homopiperazine],normal morphology,strong dendrite formation,,normal morphology
